Experimental data reported in PMC8829777 (Molecular Therapy. Methods & Clinical Development, 2022).

Tested on: PBMCs
Assay: IL-2 ELISpot of in vitro expanded PBMCs
Assay type: cell-based, human
Conditions: peptides from other AAV serotypes; PBMCs from four healthy individuals; Figure S11

FTVDNNGLY [AAV1 (6)_713-721 N718]
IL-2 response / secretion: decreased IL-2 response
